In paper PMC8401933 (Molecules, 2021):

Experiments:
TRPM6 = target: T1, TRPM6 (Homo sapiens, UniProt Q9BX84); test: KINOMEscan binding; conditions: read-out: Percent Control
T1 construct: purchased Eurofins DiscoverX KINOMEscan

HUNK = target: T2, HUNK (Homo sapiens, UniProt P57058); test: KINOMEscan binding; conditions: read-out: Percent Control
T2 construct: purchased Eurofins DiscoverX KINOMEscan

EPHA1 = target: T3, EPHA1 (Homo sapiens, UniProt P21709); test: KINOMEscan binding; conditions: read-out: Percent Control
T3 construct: purchased Eurofins DiscoverX KINOMEscan

ULK1 = target: T4, ULK1 (Homo sapiens, UniProt O75385); test: KINOMEscan binding; conditions: read-out: Percent Control
T4 construct: purchased Eurofins DiscoverX KINOMEscan

RIOK3 = target: T5, RIOK3 (Homo sapiens, UniProt O14730); test: KINOMEscan binding; conditions: read-out: Percent Control
T5 construct: purchased Eurofins DiscoverX KINOMEscan

TTK = target: T6, TTK (Homo sapiens, UniProt P33981); test: KINOMEscan binding; conditions: read-out: Percent Control
T6 construct: purchased Eurofins DiscoverX KINOMEscan

BLK = target: T7, BLK (Homo sapiens, UniProt P51451); test: KINOMEscan binding; conditions: read-out: Percent Control
T7 construct: purchased Eurofins DiscoverX KINOMEscan

IRAK1 = target: T8, IRAK1 (Homo sapiens, UniProt P51617); test: KINOMEscan binding; conditions: read-out: Percent Control
T8 construct: purchased Eurofins DiscoverX KINOMEscan

CSNK1G1 = target: T9, CSNK1G1 (Homo sapiens, UniProt Q9HCP0); test: KINOMEscan binding; conditions: read-out: Percent Control
T9 construct: purchased Eurofins DiscoverX KINOMEscan

[1] = target: T10, ABL1(H396P)-phosphorylated (Homo sapiens, UniProt P00519, H396P); test: KINOMEscan binding; conditions: read-out: Percent Control
T10 construct: purchased Eurofins DiscoverX KINOMEscan

NDR1 = target: T11, NDR1 (Homo sapiens, UniProt Q15208); test: KINOMEscan binding; conditions: read-out: Percent Control
T11 construct: purchased Eurofins DiscoverX KINOMEscan

MYO3B = target: T12, MYO3B (Homo sapiens, UniProt Q8WXR4); test: KINOMEscan binding; conditions: read-out: Percent Control
T12 construct: purchased Eurofins DiscoverX KINOMEscan

DAPK2 = target: T13, DAPK2 (Homo sapiens, UniProt Q9UIK4); test: KINOMEscan binding; conditions: read-out: Percent Control
T13 construct: purchased Eurofins DiscoverX KINOMEscan

MEK4 = target: T14, MEK4 (Homo sapiens, UniProt P45985); test: KINOMEscan binding; conditions: read-out: Percent Control
T14 construct: purchased Eurofins DiscoverX KINOMEscan

ERK8 = target: T15, ERK8 (Homo sapiens, UniProt Q8TD08); test: KINOMEscan binding; conditions: read-out: Percent Control
T15 construct: purchased Eurofins DiscoverX KINOMEscan

EPHA5 = target: T16, EPHA5 (Homo sapiens, UniProt P54756); test: KINOMEscan binding; conditions: read-out: Percent Control
T16 construct: purchased Eurofins DiscoverX KINOMEscan

KIT(V559D,T670I) = target: T17, KIT(V559D,T670I) (Homo sapiens, UniProt P10721, T670I/V559D); test: KINOMEscan binding; conditions: read-out: Percent Control
T17 construct: purchased Eurofins DiscoverX KINOMEscan

PFCDPK1(P.falciparum) = target: T18, PFCDPK1(P.falciparum) (Plasmodium falciparum, UniProt P62344); test: KINOMEscan binding; conditions: read-out: Percent Control
T18 construct: purchased Eurofins DiscoverX KINOMEscan

TIE2 = target: T19, TIE2 (Homo sapiens, UniProt Q02763); test: KINOMEscan binding; conditions: read-out: Percent Control
T19 construct: purchased Eurofins DiscoverX KINOMEscan

PIK3CA(E542K) = target: T20, PIK3CA(E542K) (Homo sapiens, UniProt P42336, E542K); test: KINOMEscan binding; conditions: read-out: Percent Control
T20 construct: purchased Eurofins DiscoverX KINOMEscan

MAP3K2 = target: T21, MAP3K2 (Homo sapiens, UniProt Q9Y2U5); test: KINOMEscan binding; conditions: read-out: Percent Control
T21 construct: purchased Eurofins DiscoverX KINOMEscan

CDKL2 = target: T22, CDKL2 (Homo sapiens, UniProt Q92772); test: KINOMEscan binding; conditions: read-out: Percent Control
T22 construct: purchased Eurofins DiscoverX KINOMEscan

[2] = target: T23, ABL1(Q252H)-phosphorylated (Homo sapiens, UniProt P00519, Q252H); test: KINOMEscan binding; conditions: read-out: Percent Control
T23 construct: purchased Eurofins DiscoverX KINOMEscan

EPHB6 = target: T24, EPHB6 (Homo sapiens, UniProt O15197); test: KINOMEscan binding; conditions: read-out: Percent Control
T24 construct: purchased Eurofins DiscoverX KINOMEscan

[3] = target: T25, ABL1(T315I)-phosphorylated (Homo sapiens, UniProt P00519, T315I); test: KINOMEscan binding; conditions: read-out: Percent Control
T25 construct: purchased Eurofins DiscoverX KINOMEscan

PFTK1 = target: T26, PFTK1 (Homo sapiens, UniProt O94921); test: KINOMEscan binding; conditions: read-out: Percent Control
T26 construct: purchased Eurofins DiscoverX KINOMEscan

PDGFRA = target: T27, PDGFRA (Homo sapiens, UniProt P16234); test: KINOMEscan binding; conditions: read-out: Percent Control
T27 construct: purchased Eurofins DiscoverX KINOMEscan

[4] = target: T28, ABL1(E255K)-phosphorylated (Homo sapiens, UniProt P00519, E255K); test: KINOMEscan binding; conditions: read-out: Percent Control
T28 construct: purchased Eurofins DiscoverX KINOMEscan

[5] = target: T29, ABL1(F317L)-nonphosphorylated (Homo sapiens, UniProt P00519, F317L); test: KINOMEscan binding; conditions: read-out: Percent Control
T29 construct: purchased Eurofins DiscoverX KINOMEscan

SIK = target: T30, SIK (Homo sapiens, UniProt P57059); test: KINOMEscan binding; conditions: read-out: Percent Control
T30 construct: purchased Eurofins DiscoverX KINOMEscan

ROCK2 = test system: ROCK2; parameters: method as in PMID 18832915; conditions: cited from earlier work
MEK1 = target: T31, MEK1 (Homo sapiens, UniProt Q02750); test: KINOMEscan binding; conditions: read-out: Percent Control
T31 construct: purchased Eurofins DiscoverX KINOMEscan

ALK(C1156Y) = target: T32, ALK(C1156Y) (Homo sapiens, UniProt Q9UM73, C1156Y); test: KINOMEscan binding; conditions: read-out: Percent Control
T32 construct: purchased Eurofins DiscoverX KINOMEscan

STK36 = target: T33, STK36 (Homo sapiens, UniProt Q9NRP7); test: KINOMEscan binding; conditions: read-out: Percent Control
T33 construct: purchased Eurofins DiscoverX KINOMEscan

ABL2 = target: T34, ABL2 (Homo sapiens, UniProt P42684); test: KINOMEscan binding; conditions: read-out: Percent Control
T34 construct: purchased Eurofins DiscoverX KINOMEscan

PIK3CA(H1047L) = target: T35, PIK3CA(H1047L) (Homo sapiens, UniProt P42336, H1047L); test: KINOMEscan binding; conditions: read-out: Percent Control
T35 construct: purchased Eurofins DiscoverX KINOMEscan

PRKX = target: T36, PRKX (Homo sapiens, UniProt P51817); test: KINOMEscan binding; conditions: read-out: Percent Control
T36 construct: purchased Eurofins DiscoverX KINOMEscan

[6] = target: T37, ABL1(F317L)-phosphorylated (Homo sapiens, UniProt P00519, F317L); test: KINOMEscan binding; conditions: read-out: Percent Control
T37 construct: purchased Eurofins DiscoverX KINOMEscan

TXK = target: T38, TXK (Homo sapiens, UniProt P42681); test: KINOMEscan binding; conditions: read-out: Percent Control
T38 construct: purchased Eurofins DiscoverX KINOMEscan

LRRK2 = target: T39, LRRK2 (Homo sapiens, UniProt Q5S007); test: KINOMEscan binding; conditions: read-out: Percent Control
T39 construct: purchased Eurofins DiscoverX KINOMEscan

ASK2 = target: T40, ASK2 (Homo sapiens, UniProt O95382); test: KINOMEscan binding; conditions: read-out: Percent Control
T40 construct: purchased Eurofins DiscoverX KINOMEscan

AKT2 = target: T41, AKT2 (Homo sapiens, UniProt P31751); test: KINOMEscan binding; conditions: read-out: Percent Control
T41 construct: purchased Eurofins DiscoverX KINOMEscan

BIKE = target: T42, BIKE (Homo sapiens, UniProt Q9NSY1); test: KINOMEscan binding; conditions: read-out: Percent Control
T42 construct: purchased Eurofins DiscoverX KINOMEscan
T42 sequence (Q9NSY1 whole entry): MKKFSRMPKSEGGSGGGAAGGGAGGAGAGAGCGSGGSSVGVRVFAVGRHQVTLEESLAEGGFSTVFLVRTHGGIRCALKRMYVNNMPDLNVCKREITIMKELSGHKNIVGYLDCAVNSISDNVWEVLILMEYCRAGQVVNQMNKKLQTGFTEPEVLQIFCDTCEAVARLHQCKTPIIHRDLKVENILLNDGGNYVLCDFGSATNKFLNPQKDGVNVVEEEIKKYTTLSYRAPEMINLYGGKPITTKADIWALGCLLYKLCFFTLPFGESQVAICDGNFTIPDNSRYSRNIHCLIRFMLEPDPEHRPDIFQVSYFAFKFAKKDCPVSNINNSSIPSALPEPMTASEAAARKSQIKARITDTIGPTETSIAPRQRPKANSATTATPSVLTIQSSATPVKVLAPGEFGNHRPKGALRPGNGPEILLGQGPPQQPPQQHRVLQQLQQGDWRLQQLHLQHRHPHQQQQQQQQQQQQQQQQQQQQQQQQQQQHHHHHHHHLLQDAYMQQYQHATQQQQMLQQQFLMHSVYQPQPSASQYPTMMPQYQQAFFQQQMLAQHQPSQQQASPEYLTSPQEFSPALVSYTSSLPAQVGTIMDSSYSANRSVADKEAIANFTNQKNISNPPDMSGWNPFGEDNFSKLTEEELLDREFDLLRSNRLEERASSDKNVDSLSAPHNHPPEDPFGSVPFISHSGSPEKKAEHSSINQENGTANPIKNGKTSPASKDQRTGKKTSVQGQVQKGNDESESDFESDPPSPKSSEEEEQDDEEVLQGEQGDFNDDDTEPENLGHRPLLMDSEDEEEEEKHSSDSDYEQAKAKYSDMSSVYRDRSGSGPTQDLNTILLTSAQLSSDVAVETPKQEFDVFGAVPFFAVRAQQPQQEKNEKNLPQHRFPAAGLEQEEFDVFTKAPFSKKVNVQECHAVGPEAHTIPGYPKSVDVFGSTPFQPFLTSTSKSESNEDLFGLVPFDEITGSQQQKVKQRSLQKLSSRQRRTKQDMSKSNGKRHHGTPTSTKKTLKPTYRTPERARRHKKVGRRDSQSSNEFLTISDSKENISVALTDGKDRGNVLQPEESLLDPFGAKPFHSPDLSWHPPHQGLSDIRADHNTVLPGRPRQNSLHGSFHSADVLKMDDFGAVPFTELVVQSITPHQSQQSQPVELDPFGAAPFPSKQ

T22 sequence (Q92772 whole entry): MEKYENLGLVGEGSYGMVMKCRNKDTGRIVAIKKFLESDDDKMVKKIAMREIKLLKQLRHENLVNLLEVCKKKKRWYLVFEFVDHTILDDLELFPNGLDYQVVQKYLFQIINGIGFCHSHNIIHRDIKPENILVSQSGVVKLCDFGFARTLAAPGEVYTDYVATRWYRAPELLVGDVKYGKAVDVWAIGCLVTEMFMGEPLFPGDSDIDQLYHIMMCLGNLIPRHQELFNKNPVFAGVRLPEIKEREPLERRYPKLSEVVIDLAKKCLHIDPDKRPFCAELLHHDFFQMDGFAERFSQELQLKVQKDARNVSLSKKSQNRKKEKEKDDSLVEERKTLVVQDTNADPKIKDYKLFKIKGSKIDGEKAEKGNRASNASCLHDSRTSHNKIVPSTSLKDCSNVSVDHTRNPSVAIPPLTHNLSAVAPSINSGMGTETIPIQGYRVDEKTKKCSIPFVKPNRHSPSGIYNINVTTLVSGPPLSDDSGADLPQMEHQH
T33 sequence (Q9NRP7 whole entry): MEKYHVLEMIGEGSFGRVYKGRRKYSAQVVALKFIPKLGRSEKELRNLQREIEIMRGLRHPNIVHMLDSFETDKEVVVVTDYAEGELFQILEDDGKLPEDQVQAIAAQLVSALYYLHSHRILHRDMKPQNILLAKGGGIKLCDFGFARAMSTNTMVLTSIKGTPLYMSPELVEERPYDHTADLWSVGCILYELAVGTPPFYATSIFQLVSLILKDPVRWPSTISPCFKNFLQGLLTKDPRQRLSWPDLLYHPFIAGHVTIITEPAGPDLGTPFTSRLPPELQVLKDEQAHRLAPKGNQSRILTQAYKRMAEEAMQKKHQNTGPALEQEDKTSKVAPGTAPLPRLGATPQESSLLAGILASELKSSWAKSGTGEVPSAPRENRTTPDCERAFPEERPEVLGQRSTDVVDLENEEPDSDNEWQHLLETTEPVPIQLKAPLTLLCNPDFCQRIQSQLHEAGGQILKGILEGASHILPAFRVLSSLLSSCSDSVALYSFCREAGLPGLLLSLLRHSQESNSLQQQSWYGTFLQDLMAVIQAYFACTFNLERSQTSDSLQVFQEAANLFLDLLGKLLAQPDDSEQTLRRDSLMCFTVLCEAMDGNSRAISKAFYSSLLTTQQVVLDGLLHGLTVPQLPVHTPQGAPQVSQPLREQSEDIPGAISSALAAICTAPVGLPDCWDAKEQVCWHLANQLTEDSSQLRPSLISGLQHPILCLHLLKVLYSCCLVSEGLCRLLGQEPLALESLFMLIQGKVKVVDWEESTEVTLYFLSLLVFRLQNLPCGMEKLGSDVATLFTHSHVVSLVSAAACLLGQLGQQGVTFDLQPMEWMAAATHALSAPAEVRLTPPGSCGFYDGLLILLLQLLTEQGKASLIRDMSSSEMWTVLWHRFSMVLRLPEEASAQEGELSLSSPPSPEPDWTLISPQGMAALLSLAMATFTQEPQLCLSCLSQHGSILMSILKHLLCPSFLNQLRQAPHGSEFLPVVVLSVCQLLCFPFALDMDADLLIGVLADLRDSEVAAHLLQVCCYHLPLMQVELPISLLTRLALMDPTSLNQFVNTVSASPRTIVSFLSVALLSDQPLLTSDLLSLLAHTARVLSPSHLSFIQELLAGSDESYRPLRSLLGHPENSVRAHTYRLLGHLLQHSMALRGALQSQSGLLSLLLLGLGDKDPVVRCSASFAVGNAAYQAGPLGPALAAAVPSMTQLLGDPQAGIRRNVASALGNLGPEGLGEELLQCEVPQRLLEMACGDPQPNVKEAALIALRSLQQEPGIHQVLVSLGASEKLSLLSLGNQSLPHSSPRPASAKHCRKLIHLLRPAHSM
T21 sequence (Q9Y2U5 whole entry): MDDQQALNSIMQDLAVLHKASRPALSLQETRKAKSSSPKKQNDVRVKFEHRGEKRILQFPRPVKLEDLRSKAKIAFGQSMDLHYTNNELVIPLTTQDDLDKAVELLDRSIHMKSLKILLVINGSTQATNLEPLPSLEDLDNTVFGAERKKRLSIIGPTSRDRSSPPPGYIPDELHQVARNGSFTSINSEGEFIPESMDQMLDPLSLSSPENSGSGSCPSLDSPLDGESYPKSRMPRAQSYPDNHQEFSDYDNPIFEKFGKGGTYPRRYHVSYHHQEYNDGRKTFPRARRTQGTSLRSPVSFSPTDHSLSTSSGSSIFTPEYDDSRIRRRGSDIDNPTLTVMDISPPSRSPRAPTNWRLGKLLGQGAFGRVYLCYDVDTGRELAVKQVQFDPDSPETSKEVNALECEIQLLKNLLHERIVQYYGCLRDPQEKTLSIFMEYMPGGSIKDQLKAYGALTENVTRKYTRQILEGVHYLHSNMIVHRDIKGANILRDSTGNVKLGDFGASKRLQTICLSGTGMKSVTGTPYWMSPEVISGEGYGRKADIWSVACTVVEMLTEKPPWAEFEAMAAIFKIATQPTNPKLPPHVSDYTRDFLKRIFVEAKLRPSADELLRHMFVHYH
T14 sequence (P45985 whole entry): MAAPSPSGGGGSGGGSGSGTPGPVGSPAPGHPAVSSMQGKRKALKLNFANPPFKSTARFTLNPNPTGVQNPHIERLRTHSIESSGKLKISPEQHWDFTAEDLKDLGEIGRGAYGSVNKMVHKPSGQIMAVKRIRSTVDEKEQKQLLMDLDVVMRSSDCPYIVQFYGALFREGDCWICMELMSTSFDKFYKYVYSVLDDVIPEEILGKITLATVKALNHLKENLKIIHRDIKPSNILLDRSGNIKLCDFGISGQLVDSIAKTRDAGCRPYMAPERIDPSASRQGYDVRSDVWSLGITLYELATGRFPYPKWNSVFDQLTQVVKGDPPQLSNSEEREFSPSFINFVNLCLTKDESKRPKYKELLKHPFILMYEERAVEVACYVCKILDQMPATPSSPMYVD
T9 sequence (Q9HCP0 whole entry): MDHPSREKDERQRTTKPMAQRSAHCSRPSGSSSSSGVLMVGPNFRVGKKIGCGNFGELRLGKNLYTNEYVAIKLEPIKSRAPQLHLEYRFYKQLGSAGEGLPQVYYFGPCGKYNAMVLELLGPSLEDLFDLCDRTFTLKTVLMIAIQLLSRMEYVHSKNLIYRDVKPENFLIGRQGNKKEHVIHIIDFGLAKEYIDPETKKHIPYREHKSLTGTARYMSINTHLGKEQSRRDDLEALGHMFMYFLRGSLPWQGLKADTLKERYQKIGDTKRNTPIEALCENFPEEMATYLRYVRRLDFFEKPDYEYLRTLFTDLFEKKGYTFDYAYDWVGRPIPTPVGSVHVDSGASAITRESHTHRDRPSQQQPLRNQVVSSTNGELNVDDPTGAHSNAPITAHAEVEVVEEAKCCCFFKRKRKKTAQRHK
T7 sequence (P51451 whole entry): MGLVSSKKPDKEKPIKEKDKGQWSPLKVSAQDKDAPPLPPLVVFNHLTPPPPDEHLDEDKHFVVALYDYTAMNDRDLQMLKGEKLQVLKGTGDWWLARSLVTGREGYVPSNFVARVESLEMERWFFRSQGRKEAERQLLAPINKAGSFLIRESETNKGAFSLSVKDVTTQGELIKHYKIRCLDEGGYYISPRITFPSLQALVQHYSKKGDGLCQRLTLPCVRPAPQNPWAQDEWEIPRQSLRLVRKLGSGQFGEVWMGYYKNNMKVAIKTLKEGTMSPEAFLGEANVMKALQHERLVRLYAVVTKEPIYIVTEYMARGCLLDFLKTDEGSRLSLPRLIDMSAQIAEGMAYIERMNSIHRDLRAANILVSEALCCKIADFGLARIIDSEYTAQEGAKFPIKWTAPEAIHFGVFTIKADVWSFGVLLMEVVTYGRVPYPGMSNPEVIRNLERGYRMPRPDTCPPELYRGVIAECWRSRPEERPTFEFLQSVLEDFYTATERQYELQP

## CC(C)NC(=O)COc1cccc(-c2nc(Nc3ccc4[nH]ncc4c3)c3ccccc3n2)c1 [KD025, 2-(3-(4-((1H-indazol-5-yl)amino)quinazolin-2-yl)phenoxy)-N-isopropylacetamide]
TRPM6
  remaining binding at 10 µM: 93%
HUNK
  remaining binding at 10 µM: 100%
EPHA1
  remaining binding at 10 µM: 88%
ULK1
  remaining binding at 10 µM: 100%
RIOK3
  remaining binding at 10 µM: 6.7%
TTK
  remaining binding at 10 µM: 28%
BLK
  remaining binding at 10 µM: 11%
IRAK1
  remaining binding at 10 µM: 100%
CSNK1G1
  remaining binding at 10 µM: 70%
[1]
  remaining binding at 10 µM: 82%
NDR1
  remaining binding at 10 µM: 73%
MYO3B
  remaining binding at 10 µM: 100%
DAPK2
  remaining binding at 10 µM: 100%
MEK4
  remaining binding at 10 µM: 100%
ERK8
  remaining binding at 10 µM: 93%
EPHA5
  remaining binding at 10 µM: 92%
KIT(V559D,T670I)
  remaining binding at 10 µM: 98%
PFCDPK1(P.falciparum)
  remaining binding at 10 µM: 66%
TIE2
  remaining binding at 10 µM: 55%
PIK3CA(E542K)
  remaining binding at 10 µM: 78%
MAP3K2
  remaining binding at 10 µM: 95%
CDKL2
  remaining binding at 10 µM: 100%
[2]
  remaining binding at 10 µM: 100%
EPHB6
  remaining binding at 10 µM: 67%
[3]
  remaining binding at 10 µM: 93%
PFTK1
  remaining binding at 10 µM: 77%
PDGFRA
  remaining binding at 10 µM: 80%
[4]
  remaining binding at 10 µM: 67%
[5]
  remaining binding at 10 µM: 96%
SIK
  remaining binding at 10 µM: 72%
ROCK2
  IC50: […]
MEK1
  remaining binding at 10 µM: 72%
ALK(C1156Y)
  remaining binding at 10 µM: 65%
STK36
  remaining binding at 10 µM: 91%
ABL2
  remaining binding at 10 µM: 92%
PIK3CA(H1047L)
  remaining binding at 10 µM: 82%
PRKX
  remaining binding at 10 µM: 81%
[6]
  remaining binding at 10 µM: 98%
TXK
  remaining binding at 10 µM: 76%
LRRK2
  remaining binding at 10 µM: 100%
ASK2
  remaining binding at 10 µM: 95%
AKT2
  remaining binding at 10 µM: 90%
BIKE
  remaining binding at 10 µM: 3.9%
